The source of these data is US11426443B2, “Compositions and methods for invasive and non-invasive procedural skincare” (Alastin Skincare, Inc., priority 2016, dated 2022).

Data set [1] is classed as physicochemical. The source says:
Certain components of the formulation tend to be difficult to solubilize in conventional formulations. […] For topical compositions containing from about 0.05% by weight to about 0.1% by weight phosphatidyl serine and/or from about 0.05% by weight to about 0.1% by weight oleuropein, caprylyl methicone in an amount of from about 0.5% by weight to about 1% by weight of caprylyl methicone can solubilize these components in an anhydrous formulation.
In Formula 8B, the amount of palmitoyl tripeptide was increased to 3%, and phosphatidylserine (lipoid PS P 70) was added, along with oleuropein 80% at 0.025%. […] In Formula 9B, the concentration of heptyl undecylenate was lowered to 2.5%, caprylyl methicone was added to solubilize the Lipoind PS P 70, which was increased to 0.05%, and oleuropein 80% was increased to 0.05%. The viscosity for Formula 9B was approximately 5000 cPs.

The subject of data set [2] is MMP-2. Conditions: wound chamber, vs control, cited from earlier work.
Data set [3] deals with VEGF. Conditions: pg VEGF/ng DNA as a function of GHK ng/mL; FIG. 11; cited from earlier work.

Take phosphatidylserine [Lipoid PS P70]: the “solubility in heptyl undecylenate” value in data set [1] is “poor solubility”.

On to `C/C=C1/[C@H](O[C@@H]2O[C@H](CO)[C@@H](O)[C@H](O)[C@H]2O)OC=C(C(=O)OC)[C@H]1CC(=O)OCCc1ccc(O)c(O)c1` [oleuropein], for which, in data set [1], the “solubility in heptyl undecylenate” value is “poor solubility”.

Regarding glycine-histidine-lysine [GHK], the “gelatinolytic activity (peaks area/μg protein), MMP-2” value in data set [2] (from day 3, peaking at days 18-22, FIG. 9) is “far greater degree than control”. In data set [2] (from day 12, peaking at days 18-22, FIG. 10), the “gelatinolytic activity (peaks area/μg protein)” value was “far greater degree than control”. In addition, the “secretion of VEGF” value in data set [3] was “dose-dependently increases”.
